Laboratory results as given in US8293705B2, “HCV protease inhibitors and uses thereof” (Avila Therapeutics, Inc., priority 2007, dated 2012).
Values joined by “and” are separate entries in the source; they are usually repeats but may differ in a detail not shown here. Equal entries are not always repeated.

Tests used:
[1] = biological target: T1, HCV NS3/4A 1b protease A156T (Hepatitis C virus genotype 1b, UniProt Q9WMX2, A1182T); experiment: HCV protease FRET assay (IC50), Example 15; type: biochemical; conditions: Inhibition (IC50), HCV A156T, FRET, 30 min pre-incubation at 25° C.
T1 construct: 10× stocks of NS3/4A protease enzyme from Bioenza (Mountain View, Calif.); purchased Bioenza (Mountain View, Calif.)
Method: (§1) The following protocol was used to generate IC50 values as depicted for compound 239 in Table 4, above. The protocol is a modified FRET-based assay (v—02) from In Vitro Resistance Studies of HCV Serine Protease Inhibitors, 2004, JBC, vol. 279, No. 17, pp 17508-17514.
(§2) 10× stocks of NS3/4A protease enzyme from Bioenza (Mountain View, Calif.) and 1.13× 5-FAM/QXL™520 FRET peptide substrate from Anaspec (San Jose, Calif.) were prepared in 50 mM HEPES, pH 7.8, 100 mM NaCl, 5 mM DTT and 20% glycerol. 5 μL of each enzyme were pre-incubated in a Corning (#3573) 384-well, black, non-treated microtiter plate (Corning, N.Y.) for 30 min at 25° C. with a 0.5 μL volume of 50% DMSO and serially diluted compounds prepared in 50% DMSO. Protease reactions were started with the addition of 45 μL of the FRET substrate and monitored for 120 minutes at λex487/λem514 through Quad^4 monochromoters in a Synergy^4 plate reader from BioTek (Winooski, Vt.). At the conclusion of each assay, progress curves from each well were examined for linear reaction kinetics and fit statistics (R^2, absolute sum of squares). Initial velocity (0 minutes to 30+ minutes) from each reaction was determined from the slope of a plot of relative fluorescence units vs time (minutes) and then plotted against inhibitor concentration to estimate IC50 from log [Inhibitor] vs Response, Variable Slope model in GraphPad Prism from GraphPad Software (San Diego, Calif.).
(§3) The compound numbers correspond to the compound numbers in Table 3. […] ;

[2] = biological target: T2, HCV NS3/4A 1b protease D168A (Hepatitis C virus genotype 1b, UniProt Q9WMX2, D1194A); experiment: HCV protease FRET assay (IC50), Example 15; type: biochemical; conditions: Inhibition (IC50), HCV D168A, FRET, 30 min pre-incubation at 25° C.
T2 construct: 10× stocks of NS3/4A protease enzyme from Bioenza (Mountain View, Calif.); purchased Bioenza (Mountain View, Calif.)
Method: as §1, §2, §3

[3] = biological target: T3, HCV NS3/4A 1b protease wild type (Hepatitis C virus genotype 1b, UniProt Q9WMX2); experiment: HCV protease FRET assay (IC50), Example 15; type: biochemical
T3 construct: 10× stocks of NS3/4A protease enzyme from Bioenza (Mountain View, Calif.); purchased Bioenza (Mountain View, Calif.)
Method: as §1, §2, §3

[4] = biological target: T1, HCV NS3/4A 1b protease A156T; experiment: HCV protease FRET assay (IC50_APP), Example 16; type: biochemical
[5] = biological target: T2, HCV NS3/4A 1b protease D168A; experiment: HCV protease FRET assay (IC50_APP), Example 16; type: biochemical
[6] = biological target: T3, HCV NS3/4A 1b protease wild type; experiment: HCV protease FRET assay (IC50_APP), Example 16; type: biochemical
[7] = test system: HCV RNA replicon in cell line ET (luc-ubi-neo/ET), human Huh7 hepatoma; experiment: HCV RNA replicon assay, Example 14 Method A; type: cell-based; conditions: Hepatitis C virus, Huh-7, assay of Example 14, 72 hr; for IC50: read-out: Inhibition, Replicon (IC50); for IC90: read-out: Inhibition, Replicon, IC90 value
Method: The compounds were assayed to evaluate the antiviral activity and cytotoxicity of compounds in vitro using HCV RNA replicons. This assay used the cell line ET (luc-ubi-neo/ET), which is a human Huh7 hepatoma cell line that contains an HCV RNA replicon with a stable luciferase (Luc) reporter and three cell culture-adaptive mutations. […]
The ET cell line was grown in Dulbecco's modified essential media (DMEM), 10% fetal bovine serum (FBS), 1% penicillin-streptomycin (pen-strep), 1% glutamine, 250 μg/mL G418 in a 5% CO2 incubator at 37° C. All cell culture reagents were obtained from Mediatech (Manassas, Va.). Cells were trypsinized (1% trypsin:EDTA) and plated out at 5×10^3 cells/well in white 96-well assay plates (Costar) dedicated to cell number (cytotoxicity) or antiviral activity assessments. Drugs were added at six 3-fold concentrations each and the assay was run in DMEM, 5% FBS, 1% pen-strep, 1% glutamine. Human interferon alpha-2b (PBL Biolabs, New Brunswick, N.J.) was included in each run as a positive control compound. Cells were processed 72 hr post drug addition when the cells are still subconfluent. Antiviral activity was measured by analyzing replicon-derived luciferase activity using the Steady-Glo Luciferase Assay System (Promega, Madison, Wis.) according to manufacturer's instruction. The number of cells in each well was determined by CytoTox-1 reagent (Promega). Compound profile was derived by calculating applicable EC50 (effective concentration inhibiting virus replication by 50%), EC90 (effective concentration inhibiting virus replication by 90%), IC50 (concentration decreasing cell viability by 50%) and SI50 (selective index: […]) values.

[8] = biological target: T4, HCV NS3/4A wild type (Hepatitis C virus genotype 1b, UniProt Q9WMX2); experiment: Mass spectrometric analysis of covalent modification (MALDI-TOF); type: binding; conditions: 10× excess of test compound to protein; MALDI-TOF
T4 construct: HCV NS3/4A wild type (wt) was incubated for 1 hr at a 10× fold access of test compound to protein; purchased Bioenza, Calif
Method: Mass spectrometric analysis of HCV wild type or HCV variant C159S in the presence of test compound is performed. 100 pmols of HCV wild type (Bioenza, Calif.) is incubated with test compound for 1 hr and 3 hrs at 10-fold access of test compound to protein. 1 ul aliquots of the samples (total volume of 4.24 ul) are diluted with 10 ul of 0.1% TFA prior to micro C4 ZipTipping directly onto the MALDI target using Sinapinic acid as the desorption matrix (10 mg/mL in 0.1% TFA:Acetonitrile 50:50). Analyses are performed on a Shimadzu Biotech Axima TOF2 (Shimadzu Instruments) matrix-assisted-laser desorption/ionization Time-of-Flight (MALDI-TOF) mass spectrometer. The same procedure is carried out on 100 pmols of HCV C159S mutant of HCV protease for 3 hrs at 10-fold excess of test compound to protein.
As depicted in FIGS. 1 and 2, mass spectrometric analysis of HCV wild type in the presence of test compounds I-1 and I-25 was performed using the following protocol: HCV NS3/4A wild type (wt) was incubated for 1 hr at a 10× fold access of test compound to protein. 2 ul aliquots of the samples were diluted with 10 ul of 0.1% TFA prior to micro C4 ZipTipping directly onto the MALDI target using Sinapinic acid as the desorption matrix (10 mg/ml in 0.1% TFA:Acetonitrile 50:50). For intact protein mass measurement the instrument was set in linear mode using a pulsed extraction setting of 24,500 and apomyoglobin as the standard to calibrate the instrument.

[9] = biological target: HCV NS3/4A D168A (Hepatitis C virus genotype 1b, UniProt Q9WMX2, D1194A); experiment: Mass spectrometric analysis of covalent modification; type: binding; conditions: methods described in Example 18
Method: HCV is incubated with test compound for 3 hrs prior to tryptic digestion. Todoacetamide is used as the alkylating agent after compound incubation. For tryptic digests a 2 ul aliquot (0.06 ug/ul) is diluted with 10 ul of 0.1% TFA prior to micro C18 Zip Tipping directly onto the MALDI target using alpha cyano-4-hydroxy cinnamic acid as the matrix (5 mg/mL in 0.1% TFA:Acetonitrile 50:50).
For tryptic digests the instrument is set in Reflectron mode with a pulsed extraction setting of 1800. Calibration is done using the Laser Biolabs Pep Mix standard (1046.54, 1296.69, 1672.92, 2093.09, 2465.20). For CID/PSD analysis the peptide is selected using cursors to set ion gate timing and fragmentation occurred at a laser power about 20% higher and He is used as the collision gas for CID. Calibration for fragments is done using the P14R fragmentation calibration for the Curved field Reflectron.
As depicted in FIGS. 4, 5, 6, and 7, mass spectrometric analysis of HCV mutants in the presence of compound I-11 was performed. […] 2 ul aliquots of the samples were diluted with 10 ul of 0.1% TFA prior to micro C4 ZipTipping directly onto the MALDI target using Sinapinic acid as the desorption matrix (10 mg/ml in 0.1% TFA:Acetonitrile 50:50). […]

[10] = biological target: T5, NS3 protease self-cleavage in Huh-7-Luc-Neo-ET replicon cells (Hepatitis C virus genotype 1b, UniProt Q9WMX2, E1202G/T1280I); experiment: Inhibition of protease self cleavage in replicon cells (washout); type: cell-based; conditions: 16 hours incubation, then removed
T5 construct: blotted with polyclonal anti NS3 antibody (Bioenza, Calif.)
Method: Huh-7-Luc-Neo-ET cells were plated in Replicon Assay Medium (RPMI supplemented with 5% FBS, 1× non-essential amino acids and pen/strep) at a density of 1×10^5 cells/well in 12 well plates. Eight hours later the media was removed and replaced with 1 ml media containing test compound (5 wells per compound) and 0.02% DMSO and the cells were returned to the incubator overnight. Sixteen hours later 1 well from each compound and 1 untreated well were washed with PBS, then lysed and scraped into 30 ul of Cell Extraction Buffer (Biosource, Camarillo, Calif.) plus Complete Protease Inhibitor (Roche, Indianapolis, Ind.). The remaining wells were rinsed 2× with PBS then fed with Replicon Media and returned to the incubator. […]
Cell lysates were separated by SDS-Page (4-20%) and transferred to Immobilon-P PVDF membrane (Millipore Corporation, MA) and blotted with polyclonal anti NS3 antibody (Bioenza, Calif.). Blots were scanned on an Odyssey infrared scanner from Licor and the FL band and cleavage products were quantified separately using the Licor software provided with the scanner. The cleavage product was calculated as a percentage of the total NS3 in each sample and then normalized to the DMSO control so that the DMSO control reflects 100% activity.

SMILES	IC50 [1] [nM]	IC50 [2] [nM]	IC50 [3] [nM]	IC50 [4] [nM]	IC50 [5] [nM]	IC50 [6] [nM]	IC50 [7] [nM]	IC90 [7] [nM]	Covalent modification of HCV NS3/4A wild type [8]	Covalent modification of HCV NS3/4A D168A [9]	Time to virtually complete return of NS3 self-cleaving activity after drug removal [10]
C=CC(=O)NCC(=O)N1C[C@H](OC(=O)N2Cc3cccc(F)c3C2)C[C@H]1C(=O)N[C@]1(C(=O)NS(=O)(=O)C2CC2)C[C@H]1C=C [Compound I-6, (3R,5S)-1-(2-acrylamidoacetyl)-5-((1R,2S)-1-(cyclopropylsulfonylcarbamoyl)-2-vinylcyclopropylcarbamoyl)pyrrolidin-3-yl 4-fluoroisoindoline-2-carboxylate]	< 10	10 to 100	< 10	< 10	100 to 1000	< 10	100 to 1000	1000 to 10000	measurable covalent modification	–	–
C=C[C@@H]1C[C@]1(NC(=O)[C@@H]1C[C@@H](OC(=O)N2Cc3cccc(F)c3C2)CN1C(=O)CNC(=O)/C=C/C)C(=O)NS(=O)(=O)C1CC1 [Compound I-7, (3R,5S)-1-(2-(E)-but-2-enamidoacetyl)-5-((1R,2S)-1-(cyclopropylsulfonylcarbamoyl)-2-vinylcyclopropylcarbamoyl)pyrrolidin-3-yl-4-fluoroisoindoline-2-carboxylate]	–	1000 to 10000	10 to 100	100 to 1000	1000 to 10000	100 to 1000	–	–	–	–	–
C=CC(=O)NC[C@H](NC(=O)OC1CCCC1)C(=O)N1C[C@H](OC(=O)N2Cc3cccc(F)c3C2)C[C@H]1C(=O)N[C@]1(C(=O)NS(=O)(=O)C2CC2)C[C@H]1C=C [Compound I-19, (3R,5S)-1-((S)-3-acrylamido-2-(cyclopentyloxycarbonylamino)propanoyl)-5-((1R,2S)-1-(cyclopropylsulfonylcarbamoyl)-2-vinylcyclopropylcarbamoyl)pyrrolidin-3-yl 4-fluoroisoindoline-2-carboxylate]	–	–	–	< 10	10 to 100	< 10	–	–	measurable covalent modification	measurable covalent modification	–
C=CC(=O)O[C@H](C)[C@H](NC(=O)OC(C)(C)C)C(=O)N1C[C@H](OC(=O)N2Cc3cccc(F)c3C2)C[C@H]1C(=O)N[C@]1(C(=O)NS(=O)(=O)C2CC2)C[C@H]1C=C [Compound I-24, (3R,5S)-1-((2S,3R)-3-(acryloyloxy)-2-(tert-butoxycarbonylamino)butanoyl)-5-((1R,2S)-1-(cyclopropylsulfonylcarbamoyl)-2-vinylcyclopropylcarbamoyl)pyrrolidin-3-yl 4-fluoroisoindoline-2-carboxylate]	–	–	–	< 10	< 10	< 10	10 to 100	100 to 1000	measurable covalent modification	measurable covalent modification	–
CCC[C@H](NC(=O)[C@@H]1[C@H]2CCC[C@H]2CN1C(=O)[C@@H](NC(=O)[C@@H](NC(=O)c1cnccn1)C1CCCCC1)C(C)(C)C)C(=O)C(=O)NC1CC1 [VX-950]	–	–	–	–	–	–	–	–	–	–	4 h and 8 h
